Measurements reported in patent US8178658B2 (Dow AgroSciences, LLC, priority 2008, dated 2012).

Experiments:
[1] = tested on: beet armyworm (BAW; Spodoptera exigua: Lepidoptera); experiment: 128-well diet tray assay on beet armyworm (BAW 50); type: in vivo; conditions: for BAW 50 ug/cm2: 128-well diet tray assay, 50 μg/cm^2 of test compound on diet, second instar BAW larvae, mortality class; for pest or weed control at 50 µg/cm2, 50 µg/cm2: Spodoptera exigua, 144 h, read-out: BAW 50 ug/cm2
Method in brief: (§1)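 HTS: eggs on diet topped with 12 μg cpd/well; dark, 29° C; mortality day 6; mean of 6 reps. Tray: 3–5 L2 larvae/well; diet dosed 50 μg/cm^2; 25° C, 14:10 L:D; 6 d; mean of 8 wells. Scored as ≥50% mortality or not.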

[2] = tested on: beet armyworm (BAW; Spodoptera exigua: Lepidoptera); experiment: 96-well microtiter plate-based high throughput (HTS) diet bioassay on beet armyworm (BAW HTS); type: in vivo; conditions: for BAW HTS: BAW eggs, 12 μg test compound per well, mortality at 6 d post-treatment, mortality class; for pest or weed control at 12 µg/well, 12 µg/well: Spodoptera exigua, 144 h, read-out: BAW HTS
Method in brief: as §1

[3] = 96-well microtiter plate HTS diet assay

Row | SMILES | BAW 50 ug/cm2 [1] | BAW HTS ([2]; 96-well HTS diet assay) | BAW HTS [2, 3] | pest or weed control at 50 µg/cm2, 50 µg/cm2 [1] | pest or weed control at 12 µg/well, 12 µg/well [2]
1 | CCO[C@@H]1[C@@H](OC)[C@H](C)O[C@@H](OC(=O)Nc2ccc(-n3ccn(-c4ccc(OC(F)(F)F)cc4)c3=O)cc2)[C@@H]1OC [Compound 187] | A (the compound was tested and at least 50 percent mortality was observed) | A (the compound was tested and at least 50 percent mortality was observed) | A (the compound was tested and at least 50 percent mortality was observed) | – | –
2 | CCO[C@@H]1[C@@H](OC)[C@H](C)O[C@@H](OC(=O)Nc2ccc(N3CCN(c4ccc(OC(F)(F)F)cc4)C3=O)cc2)[C@@H]1OC [Compound 188] | A (the compound was tested and at least 50 percent mortality was observed) | B (either (1) the compound was tested and less than 50 percent mortality was observed or (2) the compound was not tested) | B (either (1) the compound was tested and less than 50 percent mortality was observed or (2) the compound was not tested) | – | –
3 | CO[C@@H]1[C@@H](OC)[C@H](C)O[C@@H](OC(=O)Nc2ccc(-n3cnc(-c4ccc(C(F)(F)F)cc4)n3)cc2Cl)[C@@H]1OC [Compound 189, {2-chloro-4-[3-(4-trifluoromethylphenyl)-[1,2,4]triazol-1-yl]-phenyl}-carbamic acid (2S,3R,4R,5S,6S)-3,4,5-trimethoxy-6-methyl-tetrahydropyran-2-yl ester] | A (the compound was tested and at least 50 percent mortality was observed) | – | A (the compound was tested and at least 50 percent mortality was observed) | > 50% | > 50%
4 | CO[C@@H]1[C@@H](OC)[C@H](C)O[C@H](OC(=O)Nc2ccc(-n3cnc(-c4ccc(C(F)(F)F)cc4)n3)cc2Cl)[C@@H]1OC [Compound 190, {2-chloro-4-[3-(4-trifluoromethylphenyl)-[1,2,4]triazol-1-yl]-phenyl}-carbamic acid (2R,3R,4R,5S,6S)-3,4,5-trimethoxy-6-methyl-tetrahydropyran-2-yl ester] | A (the compound was tested and at least 50 percent mortality was observed) | – | A (the compound was tested and at least 50 percent mortality was observed) | > 50% | > 50%
5 | CO[C@@H]1[C@@H](OC)[C@H](C)O[C@@H](OC(=O)Nc2ccc(-c3ncn(-c4ccc(OC(F)(F)F)cc4)n3)cc2)[C@@H]1OC [Compound 191, {4-[1-(4-trifluoromethoxyphenyl)-1H-[1,2,4]triazol-3-yl]-phenyl}-carbamic acid (2S,3R,4R,5S,6S)-3,4,5-trimethoxy-6-methyl-tetrahydropyran-2-yl ester] | A (the compound was tested and at least 50 percent mortality was observed) | – | A (the compound was tested and at least 50 percent mortality was observed) | > 50% | > 50%
6 | CCO[C@@H]1[C@@H](OC)[C@H](C)O[C@@H](OC(=O)Nc2ccc(-c3ncn(-c4ccc(C(F)(F)F)cc4)n3)cc2)[C@@H]1OC [Compound 192] | A (the compound was tested and at least 50 percent mortality was observed) | A (the compound was tested and at least 50 percent mortality was observed) | A (the compound was tested and at least 50 percent mortality was observed) | – | –
7 | CCO[C@@H]1[C@@H](OC)[C@H](C)O[C@@H](OC(=O)Nc2ccc(-c3ncn(-c4ccc(OC(F)(F)F)cc4)n3)cc2)[C@@H]1OC [Compound 193] | A (the compound was tested and at least 50 percent mortality was observed) | B (either (1) the compound was tested and less than 50 percent mortality was observed or (2) the compound was not tested) | B (either (1) the compound was tested and less than 50 percent mortality was observed or (2) the compound was not tested) | – | –
